Our source for the IC50 values is ChEMBL document CHEMBL1143953, “Novel 2-phenylquinolin-7-yl-derived imidazo[1,5-a]pyrazines as potent insulin-like growth factor-I receptor (IGF-IR) inhibitors” (Bioorg Med Chem, 2008).

What is called IC50 is the midpoint of a concentration-inhibition curve.

The test has as its target Cytochrome P450 3A4 (Homo sapiens, UniProt P08684). Kind of test: Inhibition of CYP3A4. Format: ADME.

Chain of Cytochrome P450 3A4 (P08684 whole entry): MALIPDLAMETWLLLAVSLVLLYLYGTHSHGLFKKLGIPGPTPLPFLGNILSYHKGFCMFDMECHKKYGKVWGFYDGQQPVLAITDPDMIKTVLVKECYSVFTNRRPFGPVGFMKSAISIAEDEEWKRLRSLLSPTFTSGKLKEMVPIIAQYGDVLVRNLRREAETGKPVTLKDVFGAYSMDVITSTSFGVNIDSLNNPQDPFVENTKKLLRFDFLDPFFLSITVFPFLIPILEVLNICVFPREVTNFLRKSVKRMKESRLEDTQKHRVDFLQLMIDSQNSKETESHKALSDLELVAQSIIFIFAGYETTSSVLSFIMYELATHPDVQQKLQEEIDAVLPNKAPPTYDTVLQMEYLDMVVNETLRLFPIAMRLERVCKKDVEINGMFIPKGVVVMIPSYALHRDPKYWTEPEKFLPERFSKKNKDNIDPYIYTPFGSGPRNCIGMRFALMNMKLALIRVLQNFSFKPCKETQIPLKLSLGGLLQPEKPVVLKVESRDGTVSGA

The molecule `Nc1nccn2c(C3CCC3)nc(-c3ccc4ccc(-c5ccccc5)nc4c3)c12` gave an IC50 of 3.4 µM.

On to `CN(C)C[C@H]1C[C@H](c2nc(-c3ccc4ccc(-c5ccccc5)nc4c3)c3c(N)nccn32)C1`, for which the half-maximal inhibitory concentration (IC50) was determined as 15 µM.

As to `Nc1nccn2c1c(-c1ccc3ccc(-c4ccccc4)nc3c1)nc2[C@H]1C[C@@H](N2CCSCC2)C1`, the IC50 was determined as 7.8 µM. Against the preceding molecule, the IC50 is about 1.9-fold lower.

For `CN(C)[C@H]1C[C@@H](c2nc(-c3ccc4ccc(-c5ccccc5)nc4c3)c3c(N)nccn32)C1`, the IC50 is 19 µM.

`Nc1nccn2c1c(-c1ccc3ccc(-c4ccccc4)nc3c1)nc2[C@H]1C[C@@H](N2CCCCC2)C1` returned an IC50 of 7.5 µM.

Regarding `Nc1nccn2c1c(-c1ccc3ccc(-c4ccccc4)nc3c1)nc2[C@H]1C[C@@H](N2CCC2)C1`, the half-maximal inhibitory concentration (IC50) is more than 20 µM.

`Nc1nccn2c1c(-c1ccc3ccc(-c4ccccc4)nc3c1)nc2[C@H]1C[C@@H](N2CCOCC2)C1` showed an IC50 of 12 µM.
